Key:
SH-SY5Y cells = test: Killing of SH-SY5Y cells by ETC inhibitors; assay type: cell-based; conditions: for concentration range killing SH-SY5Y cells: LDH leakage and DNA fragmentation
Method: Step 5. Screening in mammalian cells treated with inhibitors of specific complexes of the ETC.
Further screening in mammalian cells treated with inhibitors of specific complexes of the ETC is conducted.

yeast lacking Yfh1p = test: Yeast-based screening assay (WST-1 tetrazolium dye reduction); assay type: cell-based; conditions: glycerol medium, 72 h, OD450, single dose 50 uM, activity threshold >1.32 fold increase in absorbance
Method: The aim of this assay is to identify compounds that can improve mitochondrial function in yeast lacking Yfh1p grown in a non-fermentable growth medium. The yeast Yfh1p expression construct used in this study has a galactose-inducible, glucose-repressible promoter driving Yfh1p production. Yfh1p is expressed when yeast are grown in the presence of galactose and inhibited when they are grown in the presence of dextrose. Growing the cells in the presence of dextrose not only turns off the expression of Yfh1p, but also leads to the depletion of Yfh1p in the cells. Transferring the Yfh1p-depleted cells into a non-fermentable, glycerol-based medium dictates that the yeast must use an oxidative pathway. […] Cleavage of the tetrazolium salt to formazan is accompanied by an increase in absorbance at 450 nm.
Compounds in the single dose assay were evaluated on the basis of Fold Induction compared to yeast only, and those in the dose response assay on percent activation, i.e. percent induction of tetrazolium dye reduction in yeast grown in a non-fermentable growth medium. Percent activation was calculated using the optical density in control wells with cells treated with positive control compound (25 uM methyl 4-(1, 2, 4, 5-tetraazin-3-yl) phenyl ether (MLSMR External ID: MLS000550612; PubChem SID: 14718875)) as full induction of tetrazolium dye reduction (100% activation), and wells with cells grown in medium without methyl 4-(1, 2, 4, 5-tetraazin-3-yl) phenyl ether as an indicator of 0% activation. Library compounds were screened at 50 uM. From the 50 uM single dose assay, 1250 compounds with significant tetrazolium dye reduction were selected for confirmatory dose response assay. These compounds were screened in a 10-point dilution series ranging from 0.01 to 100 uM.
The following screening protocol was followed. Yeast cells containing an inducible/repressible promoter for Yfh1p expression were cultured in induction medium (Yfh1 on) with Galactose as the carbon source, and then shifted to repression medium (Yfh1 off) with Dextrose as the carbon source (for 24 hours) to allow Yfh1 protein to decay. The cells were then incubated for 24 h in respiration-only medium (Yfh1 off) with Glycerol as the carbon source to allow cells to equilibrate, and then plated in 384 well plates in respiration-only medium (Yfh1 off) with glycerol as carbon source, in the presence of Tetrazolium dye (WST-1) for 72 hours.
Preparation of Assay • 1. Cells were streaked out on a YPGal agar plate and grown inverted for 3 days at 30 C. • 2. A colony was selected and 10 mL of YPGal medium inoculated and grown over night at 30 C with shaking. • 3. The cells were counted on a coulter counter, centrifuged at 1400 g for 5 min in dextrose (CSMM-D) medium, washed twice to remove all galactose, and resuspended in CSMM-D medium at a cell density of 2 to the power of 5 cells/mL. • 4. Frozen stocks were prepared at this point, in dextrose medium. For these dextrose stock solutions, enough culture was grown in dextrose media over night with shaking at 30 C, to get a cell density of ˜2 to the power of 7 cells/mL. The cells were centrifuged at 1400 g for 5 min and the pellet resuspended in glycerol freezing medium at a cell density of 2 to the power of 8 cells/mL. • 5. The day before the screen, frozen culture was thawed at room temperature and resuspended in glycerol (CSMM-G) medium. • 6. The culture was grown over night at 30 C with shaking and the cells counted and diluted in CSMM-G medium for a final cell density of 4 to the power of 6 cells/mL. • 7. Methyl 4-(1, 2, 4, 5-tetraazin-3-yl) phenyl ether (positive control), CSMM-G medium alone (negative control) and compounds were plated with DMSO at 200× concentration (final concentrations: methyl 4-(1, 2, 4, 5-tetraazin-3-yl) phenyl ether 25 uM, compounds 50 uM, DMSO 0.5%) in 384-well plates: 125 nL/well. For the dose response assay, compounds were plated in a 10-point dilution series ranging from 0.01 to 100 uM, at 1% DMSO. • 8. […]

I154F FA cells = test: I154F frataxin point-mutation model, rescue from FAC and/or BSO; assay type: cell-based, murine
Text: 2. Preliminary testing in the I154F frataxin point-mutation model determines whether test compounds can rescue I154F FA cells from lethal concentrations of FAC and/or BSO. Among the mammalian-cell models that have, or recapitulate, the genetic defects underlying FA, by far the most robust (and best validated) is the I154F murine frataxin point-mutation model developed by Puccio and colleagues (Calmels, N. et al.), the first cellular model based on frataxin missense mutations that reproduces spontaneously the defects associated with Friedreich ataxia (PLoS One 4, e6379 (2009)). […] This model is also extremely stable, with phenotypes unchanged after months of continuous culture. In contrast, the mutations in available primary human FA fibroblasts are GAA repeat expansions in the first intron of the FXN gene; occasional cells in which these expansions contract have a growth advantage and take over the culture, diluting the phenotype and increasing variance in various measures of compound efficacy.
In another screen, testing was conducted in the I154F point-mutation model as described above, to determine whether test compounds could rescue I154F FA cells from lethal or sublethal concentrations of FAC and/or BSO. Effective in this screen were the following compounds: N-[(5-chloro-8-hydroxyquinolin-7-yl)-thiophen-2-ylmethyl]-3-phenylpropanamide, N-[(5-chloro-8-hydroxyquinolin-7-yl)-thiophen-2-ylmethyl]pentanamide, N-[(5-chloro-8-hydroxyquinolin-7-yl)-furan-2-ylmethyl]-3-phenylpropanamide, N-[(5-chloro-8-hydroxyquinolin-7-yl)-furan-2-ylmethyl]propanamide, N-[(5-chloro-8-hydroxyquinolin-7-yl)-furan-2-ylmethyl]pentanamide, N-[(5-chloro-8-hydroxyquinolin-7-yl)-tolyl]-3-phenylpropanamide, N-[(5-chloro-8-hydroxyquinolin-7-yl)-(3-methoxyphenyl)methyl]-3-phenylpropanamide, N-[(5-chloro-8-hydroxyquinolin-7-yl)-(4-dimethylaminophenyl)methyl]-3-phenylpropanamide, N-[(5-chloro-8-hydroxyquinolin-7-yl)-(4-chlorophenyl)methyl]-3-phenylpropanamide, N-[(5-chloro-8-hydroxyquinolin-7-yl)-(3-chlorophenyl)methyl]-3-phenylpropanamide, N-[(5-chloro-8-hydroxyquinolin-7-yl)-(2-chlorophenyl)methyl]-3-phenylpropanamide, N-[(5-chloro-8-hydroxyquinolin-7-yl)-(3,4-dimethoxyphenyl)methyl]-3-phenylpropanamide, N-[(5-chloro-8-hydroxyquinolin-7-yl)-(2,4-dimethoxyphenyl)methyl]-3-phenylpropanamide, N-[(5-chloro-8-hydroxyquinolin-7-yl)-(3,4,5-trimethoxyphenyl)methyl]-3-phenylpropanamide, N-[(5-chloro-8-hydroxyquinolin-7-yl)-(2-bromophenyl)methyl]-3-phenylpropanamide, N-[(5-chloro-8-hydroxyquinolin-7-yl)-p-tolyl-methyl]-3-phenylpropanamide, N-[(5-chloro-8-hydroxyquinolin-7-yl)-(2-hydroxyphenyl)methyl]-3-phenylpropanamide (1a-18), and N-[(5-chloro-8-hydroxyquinolin-7-yl)-(4-methoxyphenyl)methyl]-3-phenylpropanamide.

[1] = test system: superoxide dismutase activity; test: Superoxide dismutase activity in vitro after metal pre-loading (Fluka assay kit); assay type: biochemical
Text: 3. Evaluate the catalytic activity of the compound by pre-loading with manganese, iron, or other metal and assaying superoxide dismutase and/or catalase activity in vitro. This assay helps identify a possible mechanism of action that would help explain the unusual combination of high potency, and high specificity, of the compounds embodied herein. […] Yet compounds that act catalytically are usually relatively non-specific, whereas the compounds embodied herein were confirmed active in only one assay (the FA yeast assay mentioned above) of 168 high-throughput screening assays in which they have been tested to date. With no duty to disclose the mechanism of action of the compounds embodied here and without being bound based thereon, it is hypothesized that the compounds embodied herein are chelating iron within cells and acting as superoxide dismutase (SOD) and/or catalase mimetics.
In a further evaluation, the catalytic activity of the test compound was measured by pre-loading with manganese, or various forms of iron, or other metals, and assaying superoxide dismutase activity in vitro using an assay kit from Fluka. Control levels of inhibition of SOD activity was about 4.5%, and 300 nM compound N-[(5-chloro-8-hydroxyquinolin-7-yl)-thiophen-2-ylmethyl]-3-phenylpropanamide pre-loaded with manganese about 5%. However, preloading with iron acetate increased inhibition to about 40%.

complex I = test: Complex I inhibition in SH-SY5Y cells; assay type: cell-based
Method: Step 5. Screening in mammalian cells treated with inhibitors of specific complexes of the ETC. […] Antimycin A and oligomycin kill SH-SY5Y cells in the high nM range, as assessed by LDH leakage and DNA fragmentation.
Further screening in mammalian cells treated with inhibitors of specific complexes of the ETC is conducted. […] Antimycin A and oligomycin kill SH-SY5Y cells in the high nM range, as assessed by LDH leakage and DNA fragmentation.

| Compound | concentration range killing SH-SY5Y cells (SH-SY5Y cells) | active in the screen (tetrazolium dye reduction) (yeast lacking Yfh1p) | rescue of I154F FA cells from lethal or sublethal concentrations of FAC and/or BSO (I154F FA cells) | other results |
| --- | --- | --- | --- | --- |
| CC[C@H]1/C=C/C=C/C[C@@H](C)[C@H](O)[C@@](C)(O)C(=O)[C@@H](C)[C@H](O)[C@@H](C)C(=O)[C@@H](C)[C@H](O)[C@@H](C)/C=C/C(=O)O[C@@H]2[C@H](C)[C@H](CC1)O[C@]1(CC[C@H](C)[C@H](C[C@@H](C)O)O1)[C@H]2C [oligomycin] | high nM range |  |  |  |
| O=C(CCc1ccccc1)NC(c1cccs1)c1cc(Cl)c2cccnc2c1O (stereo not drawn) [N-[(5-chloro-8-hydroxyquinolin-7-yl)-thiophen-2-ylmethyl]-3-phenylpropanamide] |  | active | Effective | inhibition of SOD activity ([1]; 300 nM compound pre-loaded with manganese, control about 4.5%): about 5%; increase in inhibition by iron ([1]; iron acetate versus manganese pre-loading): eight-fold; inhibition of SOD activity ([1]; preloading with iron acetate): about 40% |
| CC(=O)NC(c1cccs1)c1cc([N+](=O)[O-])c2cccnc2c1O (stereo not drawn) [N-[(8-hydroxy-5-nitro-quinolin-7-yl)-thiophen-2-yl-methyl]-acetamide] |  | active |  |  |
| C=C(C)[C@H]1Cc2c(ccc3c2O[C@@H]2COc4cc(OC)c(OC)cc4[C@@H]2C3=O)O1 [Rotenone] |  |  |  | death (SH-SY5Y cells; trypan blue exclusion, after 7 days at 60 μM): 90%; concentration range inhibiting complex I (complex I): nM range |
| Antimycin A | high nM range |  |  |  |
| CCCCC(=O)NC(c1cccs1)c1cc(Cl)c2cccnc2c1O (stereo not drawn) [N-[(5-chloro-8-hydroxyquinolin-7-yl)-thiophen-2-ylmethyl]pentanamide] |  | active | Effective |  |

From patent publication US10745390B2, “Small molecule activators of mitochondrial function” (THE TRUSTEES OF THE UNIVERSITY OF PENNSYLVANIA, priority 2008, dated 2020)
